According to patent US6949542B2, “Dihydro-benzo[b][1,4]diazepin-2-one derivatives” (Hoffman-La Roche Inc., priority 2002, dated 2005):

Row | Compound | melting point [°C]
1 | O=C1CC(c2cccc(-c3ccc(C4CC4)nc3)c2)=Nc2cc(OCC3CC3)c(C(F)(F)F)cc2N1 [Example 196, 7-Cyclopropylmethoxy-4-[3-(6-cyclopropyl-pyridin-3-yl)-phenyl]-8-trifluoromethyl-1,3-dihydro-benzo[b][1,4]diazepin-2-one] | 223
2 | Cc1cc2c(cc1C(F)(F)F)NC(=O)CC(c1cccc(-c3ccnc(C#N)c3)c1)=N2 [Example 199, 4-[3-(8-Methyl-4-oxo-7-trifluoromethyl-4,5-dihydro-3H-benzo[b][1,4]diazepin-2-yl)-phenyl]-pyridine-2-carbonitrile] | 205 to 211
3 | O=C1CC(c2cccc(-c3cccnc3)c2)=Nc2cc(OCC(F)(F)F)c(Cl)cc2N1 [Example 202, 8-Chloro-4-(3-pyridin-3-yl-phenyl)-7-(2,2,2-trifluoro-ethoxy)-1,3-dihydro-benzo[b][1,4]diazepin-2-one] | 203 to 204
4 | N#Cc1cc(-c2cccc(C3=Nc4cc(OCC(F)(F)F)c(Cl)cc4NC(=O)C3)c2)ccn1 [Example 203, 4-{3-[7-Chloro-4-oxo-8-(2,2,2-trifluoro-ethoxy)-4,5-dihydro-3H-benzo[b][1,4]diazepin-2-yl]-phenyl}-pyridine-2-carbonitrile] | 224 to 225
5 | N#Cc1ccc(-c2cccc(C3=Nc4ccc(C(F)(F)F)cc4NC(=O)C3)c2)cn1 [Example 204, 5-[3-(4-Oxo-7-trifluoromethyl-4,5-dihydro-3H-benzo[b][1,4]diazepin-2-yl)-phenyl]-pyridine-2-carbonitrile] | 234 to 237
6 | O=C1CC(c2cccc(-c3cccnn3)c2)=Nc2ccc(C(F)(F)F)cc2N1 [Example 205, 4-(3-Pyridazin-3-yl-phenyl)-8-trifluoromethyl-1,3-dihydro-benzo[b][1,4]diazepin-2-one] | 238 to 240
7 | O=C1CC(c2cccc(-c3ccc(C4CC4)nc3)c2)=Nc2ccc(OC(F)(F)F)cc2N1 [Example 207, 4-[3-(6-Cyclopropyl-pyridin-3-yl)-phenyl]-8-trifluoromethoxy-1,3-dihydro-benzo[b][1,4]diazepin-2-one] | 190 to 191
8 | COCCOc1cc2c(cc1C(F)(F)F)NC(=O)CC(c1cccc(-c3cccnc3)c1)=N2 [Example 208, 7-(2-Methoxy-ethoxy)-4-(3-pyridin-3-yl-phenyl)-8-trifluoromethyl-1,3-dihydro-benzo[b][1,4]diazepin-2-one] | 190 to 191
9 | CCc1cc2c(cc1C(F)(F)F)NC(=O)CC(c1cccc(-c3ccnc(C#N)c3)c1)=N2 [Example 210, 4-[3-(8-Ethyl-4-oxo-7-trifluoromethyl-4,5-dihydro-3H-benzo[b][1,4]diazepin-2-yl)-phenyl]-pyridine-2-carbonitrile] | 210 to 217
10 | CCc1cc2c(cc1C(F)(F)F)NC(=O)CC(c1cccc(-c3cccnc3)c1)=N2 [Example 211, 7-Ethyl-4-(3-pyridin-3-yl-phenyl)-8-trifluoromethyl-1,3-dihydro-benzo[b][1,4]diazepin-2-one] | 197 to 198
11 | COc1ccc(-c2cccc(C3=Nc4ccc(OC(F)(F)F)cc4NC(=O)C3)c2)cn1 [Example 212, 4-[3-(6-Methoxy-pyridin-3-yl)-phenyl]-8-trifluoromethoxy-1,3-dihydro-benzo[b][1,4]diazepin-2-one] | 186
12 | Cc1cc(-c2cccc(C3=Nc4ccc(OC(F)(F)F)cc4NC(=O)C3)c2)cc(C)n1 [Example 213, 4-[3-(2,6-Dimethyl-pyridin-4-yl)-phenyl]-8-trifluoromethoxy-1,3-dihydro-benzo[b][1,4]diazepin-2-one] | 190 to 193
13 | C=Cc1cc2c(cc1C(F)(F)F)NC(=O)CC(c1cccc(-c3cccnc3)c1)=N2 [Example 214, 4-(3-Pyridin-3-yl-phenyl)-8-trifluoromethyl-7-vinyl-1,3-dihydro-benzo[b][1,4]diazepin-2-one] | 208 to 209
14 | CCCOc1cc2c(cc1C(F)(F)F)NC(=O)CC(c1cccc(-c3cccnc3)c1)=N2 [Example 215, 7-Propoxy-4-(3-pyridin-3-yl-phenyl)-8-trifluoromethyl-1,3-dihydro-benzo[b][1,4]diazepin-2-one] | 219 to 221
15 | CCCOc1cc2c(cc1C(F)(F)F)NC(=O)CC(c1cccc(-c3ccc(C4CC4)nc3)c1)=N2 [Example 216, 4-[3-(6-Cyclopropyl-pyridin-3-yl)-phenyl]-7-propoxy-8-trifluoromethyl-1,3-dihydro-benzo[b][1,4]diazepin-2-one] | 209 to 210
16 | Cc1cc2c(cc1C(F)(F)F)NC(=O)CC(c1cccc(-c3ccc(N(C)C)nc3)c1)=N2 [Example 217, 4-[3-(6-Dimethylamino-pyridin-3-yl)-phenyl]-7-methyl-8-trifluoromethyl-1,3-dihydro-benzo[b][1,4]diazepin-2-one] | 231 to 233
17 | CN(C)c1ccc(-c2cccc(C3=Nc4cc(OCC(F)(F)F)c(C(F)(F)F)cc4NC(=O)C3)c2)cn1 [Example 218, 4-[3-(6-Dimethylamino-pyridin-3-yl)-phenyl]-7-(2,2,2-trifluoro-ethoxy)-8-trifluoromethyl-1,3-dihydro-benzo[b][1,4]diazepin-2-one] | 240 to 241
18 | CCCOc1cc2c(cc1C(F)(F)F)NC(=O)CC(c1cccc(-c3cc(C)nc(C)c3)c1)=N2 [Example 219, 4-[3-(2,6-Dimethyl-pyridin-4-yl)-phenyl]-7-propoxy-8-trifluoromethyl-1,3-dihydro-benzo[b][1,4]diazepin-2-one] | 205 to 206
19 | O=C1CC(c2cccc(-c3cccnc3C3CC3)c2)=Nc2ccc(C(F)(F)F)cc2N1 [Example 220, 4-[3-(2-Cyclopropyl-pyridin-3-yl)-phenyl]-8-trifluoromethyl-1,3-dihydro-benzo[b][1,4]diazepin-2-one] | 171 to 173

Now from value to compound:

Row | melting point [°C] | Compound
20 | 173 to 175 | Cc1cc2c(cc1C(F)(F)F)NC(=O)CC(c1cccc(-c3cccnc3C3CC3)c1)=N2 [Example 221, 4-[3-(2-Cyclopropyl-pyridin-3-yl)-phenyl]-7-methyl-8-trifluoromethyl-1,3-dihydro-benzo[b][1,4]diazepin-2-one]
21 | 220 to 221 | Cc1ccncc1-c1cccc(C2=Nc3ccc(C(F)(F)F)cc3NC(=O)C2)c1 [Example 226, 4-[3-(4-Methyl-pyridin-3-yl)-phenyl]-8-trifluoromethyl-1,3-dihydro-benzo[b][1,4]diazepin-2-one]
22 | 187 to 188 | CCOc1cc2c(cc1C(F)(F)F)NC(=O)CC(c1cccc(-c3cccnc3C3CC3)c1)=N2 [Example 227, 4-[3-(2-Cyclopropyl-pyridin-3-yl)-phenyl]-7-ethoxy-8-trifluoromethyl-1,3-dihydro-benzo[b][1,4]diazepin-2-one]
23 | 216 | CCCc1cc2c(cc1C(F)(F)F)NC(=O)CC(c1cccc(-c3cc(C)nc(C)c3)c1)=N2 [Example 229, 4-[3-(2,6-Dimethyl-pyridin-4-yl)-phenyl]-7-propyl-8-trifluoromethyl-1,3-dihydro-benzo[b][1,4]diazepin-2-one]
24 | 162 | CCCc1cc2c(cc1C(F)(F)F)NC(=O)CC(c1cccc(-c3cccnc3)c1)=N2 [Example 230, 7-Propyl-4-(3-pyridin-3-yl-phenyl)-8-trifluoromethyl-1,3-dihydro-benzo[b][1,4]diazepin-2-one]
25 | 213 to 214 | CCOc1cc2c(cc1C(F)(F)F)NC(=O)CC(c1cccc(-c3cnccc3C)c1)=N2 [Example 231, 7-Ethoxy-4-[3-(4-methyl-pyridin-3-yl)-phenyl]-8-trifluoromethyl-1,3-dihydro-benzo[b][1,4]diazepin-2-one]
26 | 198 to 200 | Cc1ccncc1-c1cccc(C2=Nc3cc(OCC(F)(F)F)c(C(F)(F)F)cc3NC(=O)C2)c1 [Example 232, 4-[3-(4-Methyl-pyridin-3-yl)-phenyl]-7-(2,2,2-trifluoro-ethoxy)-8-trifluoromethyl-1,3-dihydro-benzo[b][1,4]diazepin-2-one]
27 | 205 to 207 | Cc1ccncc1-c1cccc(C2=Nc3cc(C)c(C(F)(F)F)cc3NC(=O)C2)c1 [Example 233, 7-Methyl-4-[3-(4-methyl-pyridin-3-yl)-phenyl]-8-trifluoromethyl-1,3-dihydro-benzo[b][1,4]diazepin-2-one]
28 | 213 | CCc1ncccc1-c1cccc(C2=Nc3cc(C)c(C(F)(F)F)cc3NC(=O)C2)c1 [Example 234, 4-[3-(2-Ethyl-pyridin-3-yl)-phenyl]-7-methyl-8-trifluoromethyl-1,3-dihydro-benzo[b][1,4]diazepin-2-one]
29 | 214 | CCOc1cc2c(cc1C(F)(F)F)NC(=O)CC(c1cccc(-c3cccnc3CC)c1)=N2 [Example 235, 7-Ethoxy-4-[3-(2-ethyl-pyridin-3-yl)-phenyl]-8-trifluoromethyl-1,3-dihydro-benzo[b][1,4]diazepin-2-one]
30 | 184 | CCc1ncccc1-c1cccc(C2=Nc3cc(OCC(F)(F)F)c(C(F)(F)F)cc3NC(=O)C2)c1 [Example 236, 4-[3-(2-Ethyl-pyridin-3-yl)-phenyl]-7-(2,2,2-trifluoro-ethoxy)-8-trifluoromethyl-1,3-dihydro-benzo[b][1,4]diazepin-2-one]
31 | 235 | Cc1ccc(-c2cccc(C3=Nc4cc(C)c(C(F)(F)F)cc4NC(=O)C3)c2)cn1 [Example 237, 7-Methyl-4-[3-(6-methyl-pyridin-3-yl)-phenyl]-8-trifluoromethyl-1,3-dihydro-benzo[b][1,4]diazepin-2-one]
32 | 210 | CCOc1cc2c(cc1C(F)(F)F)NC(=O)CC(c1cccc(-c3ccc(C)nc3)c1)=N2 [Example 238, 7-Ethoxy-4-[3-(6-methyl-pyridin-3-yl)-phenyl]-8-trifluoromethyl-1,3-dihydro-benzo[b][1,4]diazepin-2-one]
33 | 159 | Cc1ccc(-c2cccc(C3=Nc4cc(OCC(F)(F)F)c(C(F)(F)F)cc4NC(=O)C3)c2)cn1 [Example 239, 4-[3-(6-Methyl-pyridin-3-yl)-phenyl]-7-(2,2,2-trifluoro-ethoxy)-8-trifluoromethyl-1,3-dihydro-benzo[b][1,4]diazepin-2-one]
